IC50 data for 32 compounds are collected here from patent US8648066B2 (Exelixis, Inc., priority 2009, dated 2014).

The experiment concerns the target mTOR/GbL/Raptor (mTORC1) (Homo sapiens, UniProt P42345). Put plainly: mTOR/GbL/Raptor (mTORC1) ELISA assay. Type of experiment: biochemical. As to conditions: phosphorylation of 4E-BP1; 0.2 nM mTORC1, 10 μM ATP; read-out: IC50 in this assay (mTORC1 ELISA). In short, it runs like this:
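ELISA read-out: phospho-4E-BP1 captured on Ni-chelate plates and detected with anti-phospho antibody plus HRP-anti-IgG luminescence. The kinase step ran 120 min at ambient temperature with 0.2 nM human mTORC1, 10 µM ATP, 50 nM His-4E-BP1, 10 mM MnCl2, pH 7.2 HEPES.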
On the technique in general: An ELISA detects its analyte on a solid surface through an enzyme-linked reagent.
`Cc1nc2ncc(-c3ccc4c(c3)CN(c3ncnc(C)c3C)CCO4)cc2[nH]1` [Example 257, 4-(5,6-dimethylpyrimidin-4-yl)-7-(2-methyl-1H-imidazo[4,5-b]pyridin-6-yl)-2,3,4,5-tetrahydro-1,4-benzoxazepine]: the IC50 (in general, the concentration needed to halve the response being measured) lay in the range of 250 to 1000 nM.

As for `COc1ccc2c(N3CCOc4ccc(-c5ccc6nc(C)[nH]c6c5)cc4C3)nc(C)nc2c1` [Example 258, 7-(2-methyl-1H-benzimidazol-6-yl)-4-[2-methyl-7-(methyloxy)quinoazolin-4-yl]-2,3,4,5-tetrahydro-1,4-benzoxazepine], the 50% inhibitory concentration (IC50) is 250 to 1000 nM.

For the compound `CCNc1nc2ccc(-c3ccc4c(c3)CN(c3ncnc5cc(OC)c(OC)cc35)CCO4)cc2[nH]1` [Example 259, 6-{4-[6,7-bis(methyloxy)quinazolin-4-yl]-2,3,4,5-tetrahydro-1,4-benzoxazepin-7-yl}-N-ethyl-1H-benzimidazol-2-amine], the half-inhibitory concentration (IC50) fell in the range of 50 to 250 nM.

On to `CCNc1nc2ccc(-c3ccc4c(c3)CN(c3nc(CC)nc5ccccc35)CCO4)cc2[nH]1` [Example 260, N-ethyl-6-[4-(2-ethylquinazolin-4-yl)-2,3,4,5-tetrahydro-1,4-benzoxazepin-7-yl]-1H-benzimidazol-2-amine], for which the IC50 fell in the range of 50 to 250 nM.

As for `CCNc1nc2ccc(-c3ccc4c(c3)CN(c3ccnc5cc(OC)c(OC)cc35)CCO4)cc2[nH]1` [Example 261, 6-{4-[6,7-bis(methyloxy)quinolin-4-yl]-2,3,4,5-tetrahydro-1,4-benzoxazepin-7-yl}-N-ethyl-1H-benzimidazol-2-amine], the IC50 was 250 to 1000 nM.

As for `CC1(C)CCc2ncnc(N3CCOc4ccc(-c5cnc6[nH]ncc6c5)cc4C3)c2C1` [Example 263, 4-(6,6-dimethyl-5,6,7,8-tetrahydroquinazolin-4-yl)-7-(1H-pyrazolo[3,4-b]pyridin-5-yl)-2,3,4,5-tetrahydro-1,4-benzoxazepine], the IC50 was in the range of 50 to 250 nM.

As for `CCNc1nc2ncc(-c3ccc4c(c3)CN(c3ncnc5c3CC(C)(C)CC5)CCO4)cc2[nH]1` [Example 264, 6-[4-(6,6-dimethyl-5,6,7,8-tetrahydroquinbazolin-4-yl)-2,3,4,5-tetrahydro-1,4-benzoxazepin-7-yl]-N-ethyl-1H-imidazo[4,5-b]pyridin-2-amine], the IC50 is at most 10 nM.

Take `CC1(C)CCc2ncnc(N3CCOc4ccc(-c5ccc6[nH]c(C(F)F)nc6c5)cc4C3)c2C1` [Example 265]: the 50% inhibitory concentration (IC50) is at most 10 nM.

In the case of `Cc1nc(N2CCOc3ccc(-c4ccc(N)nc4)cc3C2)c2ccccc2n1` [Example 266, 5-[4-(2-methylquinazolin-4-yl)-2,3,4,5-tetrahydro-1,4-benzoxazepin-7-yl]pyridin-2-amine], the IC50 fell in the range of 250 to 1000 nM.

Turning to `COc1ccc2c(N3CCOc4ccc(-c5cnc6[nH]ccc6c5)cc4C3)nc(C)nc2c1` [Example 267, 4-[2-methyl-7-(methyloxy)quinazolin-4-yl]-7-(1H-pyrrolo[2,3-b]pyridin-5-yl)-2,3,4,5-tetrahydro-1,4-benzoxazepine], the IC50 lay in the range of 250 to 1000 nM.

Consider `CCNc1nc2ccc(-c3ccc4c(c3)CN(c3ccnc5cc(F)ccc35)CCO4)cc2[nH]1` [Example 268, N-ethyl-6-[4-(7-fluoroquinolin-4-yl)-2,3,4,5-tetrahydro-1,4-benzoxazepin-7-yl]-1H-benzimidazol-2-amine], for which the IC50 lay in the range of 50 to 250 nM.

Regarding `CCNc1nc2ccc(-c3ccc4c(c3)CN(c3nc(NC)nc5ccccc35)CCO4)cc2[nH]1` [Example 269, 4-{7-[2-(ethylamino)-1H-benzimidazol-6-yl]-2,3-dihydro-1,4-benzoxazepin-4(5H)-yl}-N-methylquinazolin-2-amine], the IC50 lay in the range of 250 to 1000 nM.

Turning to `CCNc1nc(N2CCOc3ccc(-c4ccc5nc(NCC)[nH]c5c4)cc3C2)c2ccccc2n1` [Example 270, N-ethyl-4-{7-[2-(ethylamino)-1H-benzimidazol-6-yl]-2,3-dihydro-1,4-benzoxazepin-4(5H)-yl}quinazolin-2-amine], the half-inhibitory concentration (IC50) lay within 250 to 1000 nM.

For `CCNc1nc2ccc(-c3ccc4c(c3)CN(c3nc(C)nc5cc(OC)c(OC)cc35)CCO4)cc2[nH]1` [Example 271, N-ethyl-6-{4-[2-methyl-6,7-bis(methyloxy)quinazolin-4-yl]-2,3,4,5-tetrahydro-1,4-benzoxazepin-7-yl}-1H-benzimidazol-2-amine], the concentration for half-maximal inhibition (IC50) was in the range of 250 to 1000 nM.

Consider `COc1cc2nccc(N3CCOc4ccc(-c5ccc(-c6ncc[nH]6)cc5)cc4C3)c2cc1OC` [Example 272, 4-[6,7-bis(methyloxy)quinolin-4-yl]-7-[4-(1H-imidazol-2-yl)phenyl]-2,3,4,5-tetrahydro-1,4-benzoxazepine], for which the half-inhibitory concentration (IC50) is 50 to 250 nM.

In the case of `COc1ccc2c(N3CCOc4ccc(-c5ccc(N)nc5)cc4C3)nc(C)nc2c1` [Example 273, 5-{4-[2-methyl-7-(methyloxy)quinazolin-4-yl]-2,3,4,5-tetrahydro-1,4-benzoxazepin-7-yl}pyridin-2-amine], the 50% inhibitory concentration (IC50) lay in the range of 250 to 1000 nM.

For the compound `COc1ccc2c(N3CCOc4ccc(-c5ccc6[nH]ncc6c5)cc4C3)nc(C)nc2c1` [Example 274, 7-(1H-indazol-5-yl)-4-[2-methyl-7-(methyloxy)quinazolin-4-yl]-2,3,4,5-tetrahydro-1,4-benzoxazepine], the half-inhibitory concentration (IC50) is at least 2000 nM.

Regarding `CCNc1nc2ccc(-c3ccc4c(c3)CN(c3cc(Nc5ccccc5)ncn3)CCO4)cc2[nH]1` [Example 275, N-ethyl-6-{4-[6-(phenylamino)pyrimidin-4-yl]-2,3,4,5-tetrahydro-1,4-benzoxazepin-7-yl}-1H-benzimidazol-2-amine], the half-inhibitory concentration (IC50) lay in the range of 50 to 250 nM.

As to `CCNc1nc2ccc(-c3ccc4c(c3)CN(c3cc(Nc5ccc(OC)cc5)ncn3)CCO4)cc2[nH]1` [Example 276, N-ethyl-6-[4-(6-{[4-(methyloxy)phenyl]amino}pyrimidin-4-yl)-2,3,4,5-tetrahydro-1H-benzoxazepin-7-yl]-1H-benzimidazol-2-amine], the IC50 is 250 to 1000 nM.

`CCNc1nc2ccc(-c3ccc4c(c3)CN(c3ccncn3)CCO4)cc2[nH]1` [Example 277, N-ethyl-6-(4-pyrimidin-4-yl-2,3,4,5-tetrahydro-1,4-benzoxazepin-7-yl)-1H-benzimidazol-2-amine]: the IC50 lay in the range of 1000 to 2000 nM.

Consider `CCNc1nc2ccc(-c3ccc4c(c3)CN(c3ccnc5ccc(OC)cc35)CCO4)cc2[nH]1` [Example 278, N-ethyl-6-{4-[6-(methyloxy)quinolin-4-yl]-2,3,4,5-tetrahydro-1,4-benzoxazepin-7-yl}-1H-benzimidazol-2-amine], for which the IC50 was 50 to 250 nM.

With `CCNc1nc2ccc(-c3ccc4c(c3)CN(c3nc(CC)nc5cc(OC)ccc35)CCO4)cc2[nH]1` [Example 279, N-ethyl-6-{4-[2-ethyl-7-(methyloxy)quinazolin-4-yl]-2,3,4,5-tetrahydro-1,4-benzoxazepin-7-yl}-1H-benzimidazol-2-amine], the IC50 was in the range of 250 to 1000 nM.

Turning to `COc1ccc2c(N3CCOc4ccc(-c5ccc6nc[nH]c6c5)cc4C3)nc(C)nc2c1` [Example 280, 7-(1H-benzimidazol-6-yl)-4-[2-methyl-7-(methyloxy)quinoazolin-4-yl]-2,3,4,5-tetrahydro-1,4-benzoxazepine], the concentration for half-maximal inhibition (IC50) was 250 to 1000 nM.

On to `CCNc1nc2ccc(-c3ccc4c(c3)CN(c3ncnc5cc(F)ccc35)CCO4)cc2[nH]1` [Example 281, N-ethyl-6-[4-(7-fluoroquinazolin-4-yl)-2,3,4,5-tetrahydro-1,4-benzoxazepin-7-yl]-1H-benzimidazol-2-amine], for which the IC50 lay within 50 to 250 nM.

Take `CCNc1nc2ccc(-c3ccc4c(c3)CN(c3ccnc5c(F)cccc35)CCO4)cc2[nH]1` [Example 282, N-ethyl-6-[4-(8-fluoroquinolin-4-yl)-2,3,4,5-tetrahydro-1,4-benzoxazepin-7-yl]-1H-benzimidazol-2-amine]: the 50% inhibitory concentration (IC50) lay within 50 to 250 nM.

`CCNc1nc2ccc(-c3ccc4c(c3)CN(c3ccnc5ccc(F)cc35)CCO4)cc2[nH]1` [Example 283, N-ethyl-6-[4-(6-fluoroquinolin-4-yl)-2,3,4,5-tetrahydro-1,4-benzoxazepin-7-yl]-1H-benzimidazol-2-amine]: the half-maximal inhibitory concentration (IC50) is 50 to 250 nM.

As to `CCNc1nc2ccc(-c3ccc4c(c3)CN(c3cc(Nc5cccc(OC)c5)ncn3)CCO4)cc2[nH]1` [Example 284, N-ethyl-6-[4-(6-{[3-(methyloxy)phenyl]amino}pyrimidin-4-yl)-2,3,4,5-tetrahydro-1,4-benzoxazepin-7-yl]-1H-benzimidazol-2-amine], the half-maximal inhibitory concentration (IC50) was 250 to 1000 nM.

`COc1ccc2c(N3CCOc4ccc(-c5cnc(N)nc5)cc4C3)nc(C)nc2c1` [Example 286, 5-{4-[2-methyl-7-(methyloxy)quinazolin-4-yl]-2,3,4,5-tetrahydro-1,4-benzoxazepin-7-yl}pyrimidin-2-amine]: the IC50 is at least 2000 nM.

For `CCNc1nc2ccc(-c3ccc4c(c3)CN(c3ncnc(Nc5ccccc5)c3C)CCO4)cc2[nH]1` [Example 287, N-ethyl-6-{4-[5-methyl-6-(phenylamino)pyrimidin-4-yl]-2,3,4,5-tetrahydro-1,4-benzoxazepin-7-yl}-1H-benzimidazol-2-amine], the IC50 was 50 to 250 nM.

Turning to `COc1ccc2c(N3CCOc4ccc(-c5cnc6nc(N)[nH]c6c5)cc4C3)nc(C)nc2c1` [Example 289, 6-{4-[2-methyl-7-(methyloxy)quinazolin-4-yl]-2,3,4,5-tetrahydro-1,4-benzoxazepin-7-yl}-1H-imidazo[4,5-b]pyridin-2-amine], the IC50 was 10 to 50 nM.

On to `CCNc1nc2ncc(-c3ccc4c(c3)CN(c3nc(C)nc5c3CC(C)(C)CC5)CCO4)cc2[nH]1` [Example 290, N-ethyl-6-[4-(2,6,6-trimethyl-5,6,7,8-tetrahydroquinazolin-4-yl)-2,3,4,5-tetrahydro-1,4-benzoxazepin-7-yl]-1H-imidazo[4,5-b]pyridin-2-amine], for which the 50% inhibitory concentration (IC50) is at most 10 nM.

As to `CCNc1nc2ccc(-c3ccc4c(c3)CN(c3ccnc5cc(OC)ccc35)CCO4)cc2[nH]1` [Example 291, N-ethyl-6-{4-[7-(methyloxy)quinolin-4-yl]-2,3,4,5-tetrahydro-1,4-benzoxazepin-7-yl}-1H-benzimidazol-2-amine], the IC50 fell in the range of 10 to 50 nM.
